Paper PMC11191687

Assay: lactamisation (head-to-tail or side-chain-to-tail) of unprotected peptide acyl azide (from hydrazide, 20 equiv NaNO2, pH 3, -15 C, then NaHCO3 to pH ~7), MeCN cosolvent
Conditions: aq phosphate buffer (6 M GdmCl) diluted with 2 vol 50% MeCN/water, 2.2 mM, 2 steps

In the case of `C=CC[C@@H]1NC(=O)[C@H](CC(C)C)NC(=O)[C@H](CC(C)C)N(C)C(=O)[C@H](C)NC(=O)[C@H](Cc2ccc(O)c([N+](=O)[O-])c2)NC(=O)[C@H](CC(C)C)NC(=O)[C@H](Cc2cn(C(C)(C)C=C)c3ccccc23)NC1=O`, the ring closure, conversion by HPLC (from C=CC[C@H](NC(=O)[C@H](CC(C)C)NC(=O)[C@H](CC(C)C)N(C)C(=O)[C@H](C)NC(=O)[C@H](Cc1ccc(O)c([N+](=O)[O-])c1)NC(=O)[C@H](CC(C)C)NC(=O)[C@@H](N)Cc1cn(C(C)(C)C=C)c2ccccc12)C(=O)N=[N+]=[N-], 21-membered ring, 0.27 h) is reported as less than 50%.
`C=CC[C@@H]1NC(=O)[C@H](CC(C)C)NC(=O)[C@H](CC(C)C)NC(=O)[C@H](C)NC(=O)[C@H](Cc2ccc(O)c([N+](=O)[O-])c2)NC(=O)[C@H](CC(C)C)N(C)C(=O)[C@H](Cc2cn(C(C)(C)C=C)c3ccccc23)NC1=O` showed a ring closure, conversion by HPLC (from C=CC[C@H](NC(=O)[C@H](CC(C)C)NC(=O)[C@H](CC(C)C)NC(=O)[C@H](C)NC(=O)[C@H](Cc1ccc(O)c([N+](=O)[O-])c1)NC(=O)[C@H](CC(C)C)N(C)C(=O)[C@@H](N)Cc1cn(C(C)(C)C=C)c2ccccc12)C(=O)N=[N+]=[N-], 21-membered ring, 0.27 h) of less than 50%.
`C=CC[C@@H]1NC(=O)[C@H](CC(C)C)NC(=O)[C@H](CC(C)C)NC(=O)[C@H](C)NC(=O)[C@H](Cc2ccc(O)c([N+](=O)[O-])c2)NC(=O)[C@H](CC(C)C)NC(=O)[C@H](Cc2cn(C(C)(C)C=C)c3ccccc23)NC1=O` gave a ring closure, conversion by HPLC (from C=CC[C@H](NC(=O)[C@H](CC(C)C)NC(=O)[C@H](CC(C)C)NC(=O)[C@H](C)NC(=O)[C@H](Cc1ccc(O)c([N+](=O)[O-])c1)NC(=O)[C@H](CC(C)C)NC(=O)[C@@H](N)Cc1cn(C(C)(C)C=C)c2ccccc12)C(=O)N=[N+]=[N-], 21-membered ring) of 0%.
`CCCCC(C)CCC(=O)N[C@@H](CCN)C(=O)N[C@H](C(=O)N[C@@H](CCN)C(=O)N[C@H]1CCNC(=O)[C@H]([C@@H](C)O)NC(=O)[C@H](CCN)NC(=O)[C@H](CCN)NC(=O)[C@H](CC(C)C)NC(=O)[C@@H](CC(C)C)NC(=O)[C@H](CCN)NC1=O)[C@@H](C)O` (stereo partly shown) showed a ring closure, conversion by HPLC (from CCCCC(C)CCC(=O)N[C@@H](CCN)C(=O)N[C@H](C(=O)N[C@@H](CCN)C(=O)N[C@@H](CCN)C(=O)N[C@@H](CCN)C(=O)N[C@H](CC(C)C)C(=O)N[C@@H](CC(C)C)C(=O)N[C@@H](CCN)C(=O)N[C@@H](CCN)C(=O)N[C@H](C(=O)N=[N+]=[N-])[C@@H](C)O)[C@@H](C)O, 23-membered ring, 0.017 h) of 56%.
`CC(=O)N[C@@H](Cc1ccccc1)C(=O)N[C@H]1CCCNC(=O)[C@H](CCCNC(=N)N)NC(=O)[C@H](Cc2c[nH]c3ccccc23)NC(=O)[C@@H](Cc2ccc(O)cc2)NC(=O)[C@@H]2CCCN2C1=O` [Ac-Phe-Orn(cyclises via side chain)-Pro-D-Tyr-Trp-Arg-N3] gave a ring closure, conversion by HPLC (from CC(=O)N[C@@H](Cc1ccccc1)C(=O)N[C@@H](CCCN)C(=O)N1CCC[C@H]1C(=O)N[C@H](Cc1ccc(O)cc1)C(=O)N[C@@H](Cc1c[nH]c2ccccc12)C(=O)N[C@@H](CCCNC(=N)N)C(=O)N=[N+]=[N-], 18-membered ring, 0.35 h) of 95%.
In the case of `CC(C)C[C@H]1C(=O)N[C@@H](C)C(=O)N[C@@H](C)C(=O)N[C@@H](C)C(=O)N(C)[C@@H](CC(C)C)C(=O)N[C@@H](C)C(=O)N[C@@H](C)C(=O)N1C` [H-Ala-N-Me-Leu-Ala-Ala-N-Me-Leu-Ala-Ala-N3], the ring closure, conversion by HPLC (from CC(C)C[C@@H](C(=O)N[C@@H](C)C(=O)N[C@@H](C)C(=O)N(C)[C@@H](CC(C)C)C(=O)N[C@@H](C)C(=O)N[C@@H](C)C(=O)N=[N+]=[N-])N(C)C(=O)[C@H](C)N, 21-membered ring, 0.35 h) is reported as 89%.
In the case of `CC(C)C[C@H]1C(=O)N[C@@H](C)C(=O)N[C@@H](C)C(=O)N(C)[C@@H](CC(C)C)C(=O)N[C@@H](C)C(=O)NCC(=O)N[C@@H](C)C(=O)N1C` [H-Ala-N-Me-Leu-Ala-Ala-N-Me-Leu-Ala-Gly-N3], the ring closure, conversion by HPLC (from CC(C)C[C@@H](C(=O)N[C@@H](C)C(=O)N[C@@H](C)C(=O)N(C)[C@@H](CC(C)C)C(=O)N[C@@H](C)C(=O)NCC(=O)N=[N+]=[N-])N(C)C(=O)[C@H](C)N, 21-membered ring, 0.35 h) is reported as 90%.
With `C[C@@H]1NC(=O)[C@H](C)NC(=O)[C@@H]2CCCN2C(=O)[C@H](C)NC(=O)[C@H](C)NC(=O)[C@@H]2CCCN2C(=O)[C@H](C)NC1=O` [H-Ala-Pro-Ala-Ala-Pro-Ala-Ala-N3] the ring closure, conversion by HPLC (from C[C@H](N)C(=O)N1CCC[C@H]1C(=O)N[C@@H](C)C(=O)N[C@@H](C)C(=O)N1CCC[C@H]1C(=O)N[C@@H](C)C(=O)N[C@@H](C)C(=O)N=[N+]=[N-], 21-membered ring, 0.68 h) was 80%.
Work on `C[C@@H]1NC(=O)CN(C)C(=O)[C@H](C)NC(=O)[C@H](C)NC(=O)CN(C)C(=O)[C@H](C)NC(=O)[C@H](C)NC1=O` [H-Ala-Sar-Ala-Ala-Sar-Ala-Ala-N3] yielded a ring closure, conversion by HPLC (from C[C@H](N)C(=O)N(C)CC(=O)N[C@@H](C)C(=O)N[C@@H](C)C(=O)N(C)CC(=O)N[C@@H](C)C(=O)N[C@@H](C)C(=O)N=[N+]=[N-], 21-membered ring, 0.35 h) of 96%.
Work on `CC(C)C[C@@H]1NC(=O)[C@H](CCCN)NC(=O)[C@H](C(C)C)NC(=O)[C@H](Cc2ccc(O)cc2)NC(=O)[C@H](CCC(N)=O)NC(=O)[C@H](CC(N)=O)NC(=O)[C@@H](Cc2ccccc2)NC(=O)[C@H](Cc2ccccc2)NC(=O)[C@@H]2CCCN2C(=O)[C@@H](Cc2ccccc2)NC1=O` [H-D-Phe-Pro-Phe-D-Phe-Asn-Gln-Tyr-Val-Orn-Leu-N3] yielded a ring closure, conversion by HPLC (from CC(C)C[C@H](NC(=O)[C@H](CCCN)NC(=O)[C@@H](NC(=O)[C@H](Cc1ccc(O)cc1)NC(=O)[C@H](CCC(N)=O)NC(=O)[C@H](CC(N)=O)NC(=O)[C@@H](Cc1ccccc1)NC(=O)[C@H](Cc1ccccc1)NC(=O)[C@@H]1CCCN1C(=O)[C@H](N)Cc1ccccc1)C(C)C)C(=O)N=[N+]=[N-], 30-membered ring, 0.33 h) of 95%.
`CC(C)C[C@@H]1NC(=O)[C@H](CCCN)NC(=O)[C@H](C(C)C)NC(=O)[C@@H]2CCCN2C(=O)[C@@H](Cc2ccccc2)NC(=O)[C@H](CC(C)C)NC(=O)[C@H](CCCN)NC(=O)[C@H](C(C)C)NC(=O)[C@@H]2CCCN2C(=O)[C@@H](Cc2ccccc2)NC1=O` [H-D-Phe-Pro-Val-Orn-Leu-D-Phe-Pro-Val-Orn-Leu-N3] showed a ring closure, conversion by HPLC (from CC(C)C[C@H](NC(=O)[C@H](CCCN)NC(=O)[C@@H](NC(=O)[C@@H]1CCCN1C(=O)[C@@H](Cc1ccccc1)NC(=O)[C@H](CC(C)C)NC(=O)[C@H](CCCN)NC(=O)[C@@H](NC(=O)[C@@H]1CCCN1C(=O)[C@H](N)Cc1ccccc1)C(C)C)C(C)C)C(=O)N=[N+]=[N-], 30-membered ring, 0.33 h) of 92%.
`CC(C)C[C@@H]1NC(=O)[C@H](Cc2ccc(O)cc2)NC(=O)[C@@H]2CCCN2C(=O)CNC(=O)[C@H](C)NC1=O` [H-Gly-Pro-Tyr-Leu-Ala-N3] showed a ring closure, conversion by HPLC (from CC(C)C[C@H](NC(=O)[C@H](Cc1ccc(O)cc1)NC(=O)[C@@H]1CCCN1C(=O)CN)C(=O)N[C@@H](C)C(=O)N=[N+]=[N-], 15-membered ring, 0.35 h) of 77%.
With `C=CC[C@@H]1NC(=O)[C@H](CC(C)C)NC(=O)[C@H](CC(C)C)N(C)C(=O)[C@H](C)NC(=O)[C@H](Cc2ccc(O)c([N+](=O)[O-])c2)NC(=O)[C@H](CC(C)C)N(C)C(=O)[C@H](Cc2cn(C)c3ccccc23)NC1=O` [H-Leu-allylGly-Trp(1-Me)-N-Me-Leu-Tyr(3-NO2)-Ala-N-Me-Leu-N3] the ring closure, conversion by HPLC (from C=CC[C@H](NC(=O)[C@@H](N)CC(C)C)C(=O)N[C@@H](Cc1cn(C)c2ccccc12)C(=O)N(C)[C@@H](CC(C)C)C(=O)N[C@@H](Cc1ccc(O)c([N+](=O)[O-])c1)C(=O)N[C@@H](C)C(=O)N(C)[C@@H](CC(C)C)C(=O)N=[N+]=[N-], 21-membered ring, 1.35 h) was 20%.
`CSCC[C@@H]1NC(=O)[C@H](C(C)C)NC(=O)[C@H](CC(C)C)NC(=O)CNC(=O)[C@@H]2CCCN2C(=O)[C@H](C(C)C)NC(=O)CNC(=O)[C@H](Cc2ccccc2)NC1=O` [H-Phe-Gly-Val-Pro-Gly-Leu-Val-Met-N3] gave a ring closure, conversion by HPLC (from CSCC[C@H](NC(=O)[C@@H](NC(=O)[C@H](CC(C)C)NC(=O)CNC(=O)[C@@H]1CCCN1C(=O)[C@@H](NC(=O)CNC(=O)[C@@H](N)Cc1ccccc1)C(C)C)C(C)C)C(=O)N=[N+]=[N-], 24-membered ring, 0.35 h) of 38%.
Compound `CC[C@H](C)[C@@H]1NC(=O)CNC(=O)[C@H](CO)NC(=O)[C@@H]2CCCN2C(=O)[C@H](C(C)C)NC(=O)[C@@H]2CCCN2C(=O)CNC(=O)[C@H](Cc2ccccc2)NC1=O` [H-Pro-Val-Pro-Ser-Gly-Ile-Phe-Gly-N3] has a ring closure, conversion by HPLC (from CC[C@H](C)[C@H](NC(=O)CNC(=O)[C@H](CO)NC(=O)[C@@H]1CCCN1C(=O)[C@@H](NC(=O)[C@@H]1CCCN1)C(C)C)C(=O)N[C@@H](Cc1ccccc1)C(=O)NCC(=O)N=[N+]=[N-], 24-membered ring, 1.67 h) of 58%.
For `C=CC[C@@H]1NC(=O)[C@H](CC(C)C)NC(=O)[C@H](CC(C)C)N(C)C(=O)[C@H](C)NC(=O)[C@H](Cc2ccc(O)c([N+](=O)[O-])c2)NC(=O)[C@H](CC(C)C)N(C)C(=O)[C@H](Cc2cn(C)c3ccccc23)NC1=O` [H-allylGly-Trp(1-Me)-N-Me-Leu-Tyr(3-NO2)-Ala-N-Me-Leu-Leu-N3], the ring closure, conversion by HPLC (from C=CC[C@H](N)C(=O)N[C@@H](Cc1cn(C)c2ccccc12)C(=O)N(C)[C@@H](CC(C)C)C(=O)N[C@@H](Cc1ccc(O)c([N+](=O)[O-])c1)C(=O)N[C@@H](C)C(=O)N(C)[C@@H](CC(C)C)C(=O)N[C@@H](CC(C)C)C(=O)N=[N+]=[N-], 21-membered ring, 0.35 h) was 59%.
